Reference: US8906829B2, “Synergistic algicidal compositions including hydrazone derivatives and copper” (Dow AgroSciences LLC, priority 2010, dated 2014)

Columns and labels:
[1] = system: Synechocystis sp. strain 6803; assay: Effect of copper on activity of hydrazones: in vitro growth inhibition of Synechocystis in BG-11 Cu minus / Cu plus medium (Example 11); format: cell-based; settings: 72 h; for % Inhn. Plus Copper Observed: BG-11 Cu plus medium
Method: In vitro toxicity assays against the cyanobacterium (blue-green alga) Synechocystis sp. strain 6803 were conducted using BG-11 medium except that copper micronutrient, normally included as CuSO4.5H2O, was omitted. The medium, termed BG-11 Cu minus, was prepared by dissolving 1.5 g NaNO3, 40 mg K2HPO4, 6 mg citric acid, 1 mg Na2EDTA and 20 mg Na2CO3 in 1 liter of milli Q water and treating the solution with 0.5 g Chelex 100 resin (Bio-Rad Analytical grade, 50-100 mesh, sodium form, cat#142-2822) by stifling at room temperature for 1 h. 900 mL were decanted and 67.5 mg MgSO4.7H2O, 32.4 mg […], 5.4 mg ferric ammonium citrate and 0.9 mL trace metal mix A5 without copper (2.86 g H3BO3, 1.81 g MnCl2.4H2O, 222 mg ZnSO4.7H2O, 390 mg Na2MoO4.2H2O and Co(NO3)2.6H2O in 1 L Milli Q water) was added. The pH was adjusted to 7.1 and the medium was filter-sterilized. Medium containing copper (BG-11 Cu plus) was prepared by adding CuCl2.2H2O to the BG-11 Cu minus medium at 0.2 μM. Test compounds were dissolved in dimethylsulfoxide (DMSO) at 2 mg/mL then appropriate dilutions in BG-11 Cu minus and BG-11 Cu plus media were prepared in sterilized microcentrifuge tubes. 100 μL aliquots were dispensed into flat-bottomed 96-well microtiter plates. Synechocystis was maintained under 24 h of light on BG-11 agar plates at 27° C. A loopful of cells was added to 50 mL of BG-11 Cu minus growth medium and the culture was incubated with shaking at 200 rpm at 27° C. for 24 h. The culture (10 to 20 mL aliquot) was centrifuged in a bench centrifuge at 2400 rpm for 2 min. The resulting cell pellet was resuspended in 5 mL sterile milli Q water (which had been treated with Chelex 100 resin using 0.5 g resin per liter of water by stirring at room temperature for 1 h), and recentrifuged. The cells were resuspended in BG-11 Cu minus medium, and the suspension adjusted to 4×10^5 spores per mL. Microtiter plates containing compounds as described above were inoculated with 100 μL of this cell suspension and the plates incubated at 27° C. for 72 h before assessing algal growth by measuring light scattering in a NepheloStar plate reader. Growth inhibition was determined by comparing growth in the presence of test compound with growth in control wells lacking test compound. Results for growth inhibition by test compounds in BG-11 Cu plus medium (% Inhn Plus Copper Observed) were compared with predicted values (% Inhn Plus Copper Predicted) that were calculated using the formula set forth by S. R. Colby in Weeds 1967, 15, 20-22 based on-results obtained for the same compounds in BG-11 Cu minus medium (% Inhn Minus Copper Observed) and the inhibition attributed to copper chloride alone, as determined by comparing growth in copper-minus and copper-plus media without any test compound across experiments. Results illustrate that hydrazones and copper produce a synergistic algicidal effect towards Synechocystis.

C. reinhardtii CC-1928 = assay: Effect of copper on activity of hydrazones: in vitro growth inhibition of C. reinhardtii in TAP Cu minus / TAP Cu plus medium (Example 10); format: cell-based, Chlamydomonas reinhardtii; settings: test compound 1 μg/mL, 48 h; for inhibition of growth at 1 µg/mL: Chlamydomonas reinhardtii, TAP Cu minus medium, read-out: % Inhn. Minus Copper Observed; for % Inhn. Plus Copper Observed: TAP Cu plus medium (CuCl2)
Method: In vitro toxicity assays against C. reinhardtii CC-1928 (wild type mt+137c green in dark subclone) obtained from the Chlamydomonas Resource Center at Duke University were conducted using TAP liquid growth medium described by Gorman and Levine Proc. Natl. Acad. Sci. USA 1965, 54, 1665-1669 except that CuSO4.5H2O, normally included as a component of Hutner's trace element stock solution (Hutner et al. Proc. Am. Philos. Soc. 1950, 94, 152-170), was omitted. The TAP medium lacking Cu (TAP Cu minus) was prepared by adding 400 mg NH4Cl, 10 mL of 100× Tris-Acetate (242 g Tris-base and 100 mL glacial acetic acid in 1000 mL milli Q water), and 8.3 mL of 120.5× phosphate buffer (14.34 g K2HPO4 and 7.26 g KH2PO4 in 1000 mL milli Q water) to milli Q water to make a total volume of 1 liter. The medium was treated with 0.5 g Chelex 100 resin (Bio-Rad Analytical grade, 50-100 mesh, sodium form, cat#142-2822) by stirring at room temperature for 1 hour. 900 mL were decanted and 45.9 mg of CaCl2.2H2O, 90 mg of MgSO4.7H2O and 0.9 mL Hutner's trace elements lacking CuSO4.5H2O were added and the solution was filter-sterilized. Medium containing copper (TAP Cu plus) was prepared by adding CuCl2.2H2O to the TAP Cu minus medium at 20 μM. Test compounds were dissolved in dimethylsulfoxide (DMSO) at 2 mg/mL then dilutions in TAP Cu minus and TAP Cu plus media were prepared in sterilized microcentrifuge tubes at 2 μg/mL. 100 μL aliquots of diluted compound were dispensed into flat-bottomed 96-well microtiter plates. C. reinhardtii was maintained under 12 h of light on TAP agar plates at 18° C. A loopful of cells was added to 50 mL of TAP Cu minus medium and the culture incubated with shaking at 200 rpm at 27° C. for 24 h. The culture (10 to 20 mL aliquot) was centrifuged in a bench centrifuge at 2000 rpm for 2 min. The resulting cell pellet was resuspended in 5 mL sterile milli Q water (which had been treated with Chelex 100 resin using 0.5 g resin per liter of water by stirring at room temperature for 1 h), and recentrifuged. The cells were resuspended in TAP Cu minus medium, and the suspension adjusted to 2×10^5 spores per mL. Microtiter plates containing compounds as described above were inoculated with 100 μL of this cell suspension and the plates incubated at 27° C. for 48 h before assessing algal growth by measuring light scattering in a NepheloStar plate-reader. Growth inhibition was determined by comparing growth in the presence of test compound with growth in control wells lacking test compound. Results for growth inhibition by test compounds at 1 μg/mL in TAP Cu plus medium (% Inhn Plus Copper Observed) were compared with predicted values (% Inhn Plus Copper Predicted) that were calculated using the formula set forth by S. R. Colby in Weeds 1967, 15, 20-22 based on results obtained for the same compounds in TAP Cu minus medium (% Inhn Minus Copper Observed). […] Results illustrate that hydrazones and copper produce a synergistic algicidal effect towards C. reinhardtii.

[2] = Synechocystis, Test Concn. 0.05 μg/mL, BG-11 Cu minus medium, read-out: % Inhn. Minus Copper Observed
[3] = Synechocystis, Test Concn. 0.0125 μg/mL, BG-11 Cu minus medium, read-out: % Inhn. Minus Copper Observed

SMILES	melting point [°C]	inhibition of growth at 0.05 µg/mL [1, 2] [%]	% Inhn. Plus Copper Observed ([1]; Test Concn. 0.05 μg/mL) [%]	inhibition of growth at 1 µg/mL (C. reinhardtii CC-1928) [%]	% Inhn. Plus Copper Observed (C. reinhardtii CC-1928) [%]	inhibition of growth at 0.0125 µg/mL [1, 3] [%]	% Inhn. Plus Copper Observed ([1]; Test Concn. 0.0125 μg/mL) [%]	inhibition of growth at 0.00625 µg/mL ([1]; Synechocystis, Test Concn. 0.00625 μg/mL, BG-11 Cu minus medium, read-out: % Inhn. Minus Copper Observed) [%]	% Inhn. Plus Copper Observed ([1]; Test Concn. 0.00625 μg/mL) [%]
Cc1ccc(C(=O)N/N=C/c2cc(C(F)(F)F)cc(Cl)c2O)c(O)c1 [Compound 31]	255 to 257	38	92	-1	88	–	–	–	–
Cc1cccc(C(=O)N/N=C/c2cccc(C(F)(F)F)c2O)c1 [Compound 33]	188 to 190	29	97	21	97	–	–	–	–
O=C(N/N=C/c1cccc(C(F)(F)F)c1O)c1cccc(F)c1 [Compound 34]	176 to 180	34	91	8	97	–	–	–	–
O=C(N/N=C/c1cccc(C(F)(F)F)c1O)c1ccc(Cl)cc1 [Compound 35]	215 to 216	26	91	9	97	–	–	–	–
O=C(N/N=C/c1cccc(C(F)(F)F)c1O)c1ccccc1O [Compound 36]	230 to 234	–	–	7	96	28	87	–	–
Cc1ccc(C(=O)N/N=C/c2cccc(C(F)(F)F)c2O)c(O)c1 [Compound 37]	248 to 253	–	–	12	97	44	88	–	–
Cc1cccc(C(=O)N/N=C/c2ccc(Cl)c(Cl)c2O)c1 [Compound 38]	212 to 214	49	93	15	94	–	–	–	–
O=C(N/N=C/c1ccc(Cl)c(Cl)c1O)c1cccc(F)c1 [Compound 39]	215 to 218	31	92	8	91	–	–	–	–
O=C(N/N=C/c1ccc(Cl)c(Cl)c1O)c1cccc(Cl)c1 [Compound 40]	219 to 222	–	–	22	96	–	–	4	64

Second part, led by results:

melting point [°C]	SMILES	inhibition of growth at 0.05 µg/mL [1, 2] [%]	% Inhn. Plus Copper Observed ([1]; Test Concn. 0.05 μg/mL) [%]	inhibition of growth at 1 µg/mL (C. reinhardtii CC-1928) [%]	% Inhn. Plus Copper Observed (C. reinhardtii CC-1928) [%]	inhibition of growth at 0.0125 µg/mL [1, 3] [%]	% Inhn. Plus Copper Observed ([1]; Test Concn. 0.0125 μg/mL) [%]	inhibition of growth at 0.00625 µg/mL ([1]; Synechocystis, Test Concn. 0.00625 μg/mL, BG-11 Cu minus medium, read-out: % Inhn. Minus Copper Observed) [%]	% Inhn. Plus Copper Observed ([1]; Test Concn. 0.00625 μg/mL) [%]
271 to 278	Cc1ccc(C(=O)N/N=C/c2ccc(Cl)c(Cl)c2O)c(O)c1 [Compound 41]	–	–	28	96	26	93	–	–
214 to 216	Cc1cccc(C(=O)N/N=C/c2c(Cl)ccc(Cl)c2O)c1 [Compound 42]	10	94	10	96	–	–	–	–
264 to 267	O=C(N/N=C/c1c(Cl)ccc(Cl)c1O)c1ccc(F)cc1 [Compound 43]	23	95	9	93	–	–	–	–
232 to 234	O=C(N/N=C/c1c(Cl)ccc(Cl)c1O)c1cccc(Cl)c1 [Compound 44]	61	93	11	94	–	–	–	–
260 to 262	O=C(N/N=C/c1c(Cl)ccc(Cl)c1O)c1ccccc1O [Compound 46]	–	–	0	92	37	80	–	–
228 to 229	O=C(N/N=C/c1cc(Cl)cc(C(F)(F)F)c1O)c1cccc(Cl)c1 [Compound 47]	–	–	-5	77	24	60	–	–
258 to 260	O=C(N/N=C/c1cc(Cl)cc(C(F)(F)F)c1O)c1ccccc1O [Compound 48]	32	95	18	92	–	–	–	–
166 to 169	Cc1cccc(C(=O)N/N=C/c2cccc(Cl)c2O)c1 [Compound 50]	-7	95	6	97	–	–	–	–
174 to 178	O=C(N/N=C/c1cccc(Cl)c1O)c1cccc(Cl)c1 [Compound 51]	17	97	-13	96	–	–	–	–
284 to 287	O=C(N/N=C/c1cccc(Cl)c1O)c1ccc([N+](=O)[O-])cc1 [Compound 53]	45	94	8	88	–	–	–	–
266 to 268	O=C(N/N=C/c1cccc(Cl)c1O)c1ccccc1O [Compound 54]	37	88	-8	75	–	–	–	–
